Data from patent publication US9790217B2, “Pyridinyloxy- and phenyloxy-pyrazolyl compounds” (Hoffmann-La Roche Inc., priority 2014, dated 2017).

Experiments:
[1] = target: human CYP11B2 (Homo sapiens (Human), UniProt P19099); assay: G-402 cellular enzyme assay, human CYP11B2 (aldosterone release, HTRF); assay type: cell-based; conditions: G-402 cells expressing human CYP11B2; 1 μM Deoxycorticosterone
Excerpt: (§1) Herein we identified the use of the G-402 cell line as a host cell to ectopically express (transiently or stably) enzymes of the CYP11 family. Specifically we developed stable G-402 cells expressing ectopically human CYP11B1, human CYP11B2, human CYP11A1, cynmolgus CYP11B1 or cynomolgus CYP11B2 enzyme activity. Importantly the identified cell line G-402 expresses co-factors (adrenodoxin and adrenodoxin reductase) important for the activity of the CYP11 family and no relevant enzyme activity of the CYP11 family (in comparison to H295R cells) was detected in these cells. Therefore the G-402 cell line is uniquely suited as a host cell for the ectopic expression of enzymes from the CYP11 family.
(§2) G-402 cells can be obtained from ATCC (CRL-1440) and were originally derived from a renal leiomyoblastoma.
(§3) The expression plasmids contains the ORF for either human/cyno CYP11B1 or CYP11B2 under the control of a suitable promoter (CMV-promoter) and a suitable resistance marker (neomycin). Using standard techniques the expression plasmid is transfected into G-402 cells and these cells are then selected for expressing the given resistance markers. Individual cell-clones are then selected and assessed for displaying the desired enzymatic activity using 11-Deoxycorticosterone (Cyp11B2) or 11-Deoxycortisol (Cyp11B1) as a substrate.
(§4) G-402 cells expressing CYP11 constructs were established as described above and maintained in McCoy's 5a Medium Modified, ATCC Catalog No. 30-2007 containing 10% FCS and 400 μg/ml G418 (Geneticin) at 37° C. under an atmosphere of 5% CO2/95% air. Cellular enzyme assays were performed in DMEM/F12 medium containing 2.5% charcoal treated FCS and appropriate concentration of substrate (0.3-10 uM 11-Deoxycorticosterone, 11-Deoxycortisol or Corticosterone). For assaying enzymatic activity, cells were plated onto 96 well plates and incubated for 16 h. An aliquot of the supernatant is then transferred and analyzed for the concentration of the expected product (Aldosterone for CYP11B2; Cortisol for CYP11B1). The concentrations of these steroids can be determined using HTRF assays from CisBio analyzing either Aldosterone or Cortisol.
(§5) Inhibition of the release of produced steroids can be used as a measure of the respective enzyme inhibition by test compounds added during the cellular enzyme assay. The dose dependent inhibition of enzymatic activity by a compound is calculated by means of plotting added inhibitor concentrations (x-axes) vs. measured steroid/product level (y-axes). The inhibition is then calculated by fitting the following 4-parameter sigmoidal function (Morgan-Mercer-Flodin (MMF) model) to the raw data points using the least squares method:
(§6) [formula] wherein, A is the maximum y value, B is the EC50 factor determined using XLFit, C is the minimum y value and D is the slope value.
(§7) EC50 values for compounds claimed herein were tested with the G402-based assay system described. Cyp11B2 enzyme activity was tested in presence of 1 μM Deoxycorticosterone and variable amounts of inhibitors; Cyp11B1 enzyme activity was tested in presence of 1 μM Deoxycortisol and variable amounts of inhibitors.

[2] = target: human CYP11B1 (Homo sapiens (Human), UniProt P15538); assay: G-402 cellular enzyme assay, human CYP11B1 (cortisol release, HTRF); assay type: cell-based; conditions: G-402 cells expressing human CYP11B1; 1 μM Deoxycortisol
Excerpt: as §1, §2, §3, §4, §5, §6, §7

Chain of human CYP11B2 (P19099 25-503): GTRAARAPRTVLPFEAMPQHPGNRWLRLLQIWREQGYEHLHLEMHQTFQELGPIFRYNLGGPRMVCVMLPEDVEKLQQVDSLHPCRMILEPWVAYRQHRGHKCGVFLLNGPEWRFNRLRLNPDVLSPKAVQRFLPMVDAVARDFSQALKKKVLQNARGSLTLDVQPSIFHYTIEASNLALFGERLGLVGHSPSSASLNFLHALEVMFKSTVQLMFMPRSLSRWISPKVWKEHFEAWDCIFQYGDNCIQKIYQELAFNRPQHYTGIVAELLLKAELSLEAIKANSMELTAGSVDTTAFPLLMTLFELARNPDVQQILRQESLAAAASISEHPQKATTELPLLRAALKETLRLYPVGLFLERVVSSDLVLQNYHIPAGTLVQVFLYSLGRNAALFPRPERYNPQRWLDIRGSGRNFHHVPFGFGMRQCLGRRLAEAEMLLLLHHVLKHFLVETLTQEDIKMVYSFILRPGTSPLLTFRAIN
Chain of human CYP11B1 (P15538 25-503): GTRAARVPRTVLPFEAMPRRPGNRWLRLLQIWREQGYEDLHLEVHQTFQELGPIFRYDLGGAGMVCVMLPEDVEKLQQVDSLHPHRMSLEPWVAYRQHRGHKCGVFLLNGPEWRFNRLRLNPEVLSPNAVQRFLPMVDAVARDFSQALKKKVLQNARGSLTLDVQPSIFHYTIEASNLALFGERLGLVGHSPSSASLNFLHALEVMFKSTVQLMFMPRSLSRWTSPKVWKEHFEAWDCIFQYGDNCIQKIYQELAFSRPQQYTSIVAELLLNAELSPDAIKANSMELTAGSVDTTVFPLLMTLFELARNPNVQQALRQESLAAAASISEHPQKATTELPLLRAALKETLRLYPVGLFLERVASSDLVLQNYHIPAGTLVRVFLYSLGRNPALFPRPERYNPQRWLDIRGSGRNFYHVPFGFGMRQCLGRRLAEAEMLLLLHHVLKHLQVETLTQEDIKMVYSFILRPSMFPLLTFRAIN

Row | Compound | EC50 [1] | EC50 [2]
1 | Cc1ccc(Oc2cn[nH]c2-c2ccccc2Cl)cn1 [Example 20, 5-[[5-(2-Chlorophenyl)-1H-pyrazol-4-yl]oxy]-2-methylpyridine] | 311 nM | 3390 nM
2 | Clc1ccc(Oc2cn[nH]c2-c2ccccc2Cl)cn1 [Example 19, 2-Chloro-5-[[5-(2-chlorophenyl)-1H-pyrazol-4-yl]oxy]pyridine] | 113 nM | 387 nM
3 | Cn1cc(COc2cccc(-c3[nH]ncc3Oc3ccc(C#N)cc3)c2)cn1 [Example 56, 4-[[3-[3-[(1-Methylpyrazol-4-yl)methoxy]phenyl]-1H-pyrazol-4-yl]oxy]benzonitrile] | 9.5 nM | 93.6 nM
4 | COc1ccccc1CCc1[nH]ncc1Oc1ccc(C#N)cc1 [Example 60, 4-[[3-[2-(2-Methoxyphenyl)ethyl]-1H-pyrazol-4-yl]oxy]benzonitrile] | 54 nM | 1000 nM
5 | N#Cc1ccc(Oc2cn[nH]c2-c2cccc(C[n+]3cccc([O-])c3)c2)cc1 [Example 71, 1-[[3-[4-(4-Cyanophenoxy)-1H-pyrazol-3-yl]phenyl]methyl]pyridin-1-ium-3-olate] | 656 nM | 5880 nM
6 | Fc1cccc(Oc2cn[nH]c2-c2ccc(Cl)cc2Cl)n1 [Example 21, 2-[[5-(2,4-Dichlorophenyl)-1H-pyrazol-4-yl]oxy]-6-fluoropyridine] | 101 nM | 841 nM
7 | COc1ccc(Oc2cn[nH]c2-c2ccc(Cl)cc2)cc1 [Example 2, 3-(4-Chlorophenyl)-4-(4-methoxyphenoxy)-1H-pyrazole] | 463 nM | 1970 nM
8 | CS(=O)(=O)c1ccc(-c2[nH]ncc2Oc2ccc(Cl)cc2)cc1 [Example 12, 4-(4-Chlorophenoxy)-5-(4-methylsulfonylphenyl)-1H-pyrazole] | 26.4 nM | 600 nM
9 | N#Cc1ccc(Oc2cn[nH]c2-c2cccc(CN3CCOCC3)c2)cc1 [Example 75, 4-[[3-[3-(Morpholin-4-ylmethyl)phenyl]-1H-pyrazol-4-yl]oxy]benzonitrile] | 8.5 nM | 139 nM
10 | CCOC(=O)c1ccccc1-c1[nH]ncc1Oc1ccc(C#N)cc1 [Example 39, Ethyl 2-[4-(4-cyanophenoxy)-1H-pyrazol-3-yl]benzoate] | 34.2 nM | 1160 nM
11 | FC(F)(F)Oc1ccccc1-c1[nH]ncc1Oc1ccc(Cl)cc1 [Example 7, 4-(4-Chlorophenoxy)-5-[2-(trifluoromethoxy)phenyl]-1H-pyrazole] | 24.4 nM | 861 nM
12 | N#Cc1ccc(Oc2cn[nH]c2-c2cccc(OCc3ccncc3)c2)cc1 [Example 54, 4-[[3-[3-(Pyridin-4-ylmethoxy)phenyl]-1H-pyrazol-4-yl]oxy]benzonitrile] | 3.5 nM | 46.5 nM
13 | N#Cc1ccc(Oc2cn[nH]c2-c2cccc(O)c2)cc1 [Example 48, 4-[[3-(3-Hydroxyphenyl)-1H-pyrazol-4-yl]oxy]benzonitrile] | 20.4 nM | 83.4 nM
14 | Fc1cc(Cl)ccc1Oc1cn[nH]c1-c1ccccc1Cl [Example 24, 4-(4-Chloro-2-fluorophenoxy)-5-(2-chlorophenyl)-1H-pyrazole] | 10.2 nM | 350 nM
15 | Cn1cc(C(=O)N2CCCC(c3[nH]ncc3Oc3ccc(C#N)cc3)C2)cn1 (racemic) [Example 63, (rac)-4-[[3-[1-(1-Methylpyrazole-4-carbonyl)piperidin-3-yl]-1H-pyrazol-4-yl]oxy]benzonitrile] | 150 nM | 6470 nM
16 | N#Cc1ccc(Oc2cn[nH]c2-c2cccc(F)c2Cl)cc1 [Example 35, 4-[[5-(2-Chloro-3-fluorophenyl)-1H-pyrazol-4-yl]oxy]benzonitrile] | 1.5 nM | 68.6 nM
17 | CS(=O)(=O)N1CCN(C(=O)c2cccc(-c3[nH]ncc3Oc3ccc(C#N)cc3)c2)CC1 [Example 46, 4-[[3-[3-(4-Methylsulfonylpiperazine-1-carbonyl)phenyl]-1H-pyrazol-4-yl]oxy]benzonitrile] | 1050 nM | 10700 nM

Row | Compound | EC50 [1] | EC50 [2]
18 | COC(=O)c1cccc(-c2[nH]ncc2Oc2ccc(C#N)cc2)c1 [Example 33, Methyl 3-[4-(4-cyanophenoxy)-1H-pyrazol-3-yl]benzoate] | 17.5 nM | 31.3 nM
19 | Fc1cccc(-c2[nH]ncc2Oc2ccc(Cl)cc2)c1F [Example 1, 4-(4-Chlorophenoxy)-5-(2,3-difluorophenyl)-1H-pyrazole] | 29.8 nM | 1030 nM
20 | Cn1cc(C(=O)N2CCCC(c3[nH]ncc3Oc3ccc(C#N)cc3F)C2)cn1 (racemic) [Example 89, (rac)-3-Fluoro-4-[[5-[1-(1-methylpyrazole-4-carbonyl)piperidin-3-yl]-1H-pyrazol-4-yl]oxy]benzonitrile] | 231 nM | 7760 nM
21 | N#Cc1ccc(Oc2cn[nH]c2-c2cccc(OCc3cccnc3)c2)cc1 [Example 51, 4-[[3-[3-(Pyridin-3-ylmethoxy)phenyl]-1H-pyrazol-4-yl]oxy]benzonitrile] | 9.5 nM | 51.3 nM
22 | N#Cc1ccc(Oc2cn[nH]c2-c2cccc(COc3cccc(Cl)n3)c2)cc1 [Example 73, 4-[[3-[3-[(6-Chloropyridin-2-yl)oxymethyl]phenyl]-1H-pyrazol-4-yl]oxy]benzonitrile] | 104 nM | 411 nM
23 | Cc1ncc(-c2[nH]ncc2Oc2ccc(C#N)cc2)s1 [Example 66, 4-[[3-(2-Methyl-1,3-thiazol-5-yl)-1H-pyrazol-4-yl]oxy]benzonitrile] | 68.5 nM | 2060 nM
24 | COc1ccccc1-c1[nH]ncc1Oc1ccc(Cl)cc1 [Example 4, 4-(4-Chlorophenoxy)-3-(2-methoxyphenyl)-1H-pyrazole] | 0.1 nM | 1.3 nM
25 | N#Cc1ccc(Oc2cn[nH]c2C2CCCN(C(=O)c3cccnc3)C2)c(F)c1 (racemic) [Example 91, (rac)-3-Fluoro-4-[[3-[1-(pyridine-3-carbonyl)piperidin-3-yl]-1H-pyrazol-4-yl]oxy]benzonitrile] | 1260 nM | 9010 nM
26 | CCCCOc1cccc(-c2[nH]ncc2Oc2ccc(C#N)cc2)c1 [Example 59, 4-[[5-(3-Butoxyphenyl)-1H-pyrazol-4-yl]oxy]benzonitrile] | 10.9 nM | 102 nM
27 | N#Cc1ccc(Oc2cn[nH]c2-c2cccc(C(=O)N3CC(CO)C3)c2)cc1 [Example 47, 4-[[3-[3-[3-(Hydroxymethyl)azetidine-1-carbonyl]phenyl]-1H-pyrazol-4-yl]oxy]benzonitrile] | 281 nM | 159 nM
28 | N#Cc1ccc(Oc2cn[nH]c2-c2cccc(CN3CC(F)(CO)C3)c2)cc1 [Example 74, 4-[[3-[3-[[3-Fluoro-3-(hydroxymethyl)azetidin-1-yl]methyl]phenyl]-1H-pyrazol-4-yl]oxy]benzonitrile] | 19.7 nM | 36.2 nM
29 | N#Cc1ccc(Oc2cn[nH]c2-c2ccccc2OCc2cccnc2)cc1 [Example 77, 4-[[3-[2-(Pyridin-3-ylmethoxy)phenyl]-1H-pyrazol-4-yl]oxy]benzonitrile] | 0.3 nM | 11.4 nM
30 | Cn1nncc1COc1ccccc1-c1[nH]ncc1Oc1ccc(C#N)cc1 [Example 81, 4-[[3-[2-[(3-Methyltriazol-4-yl)methoxy]phenyl]-1H-pyrazol-4-yl]oxy]benzonitrile] | 2.5 nM | 171 nM
31 | N#Cc1ccc(Oc2cn[nH]c2-c2cccc(Cl)c2)cc1 [Example 32, 4-[[5-(3-Chlorophenyl)-1H-pyrazol-4-yl]oxy]benzonitrile] | 45.8 nM | 542 nM
32 | Cn1cc(C(=O)N2CCN(Cc3[nH]ncc3Oc3ccc(C#N)cc3)CC2)cn1 [Example 88, 4-[[5-[[4-(1-Methylpyrazole-4-carbonyl)piperazin-1-yl]methyl]-1H-pyrazol-4-yl]oxy]benzonitrile] | 147 nM | 25900 nM
33 | Fc1cc(Cl)ccc1-c1[nH]ncc1Oc1ccc(Cl)cc1 [Example 11, 5-(4-Chloro-2-fluorophenyl)-4-(4-chlorophenoxy)-1H-pyrazole] | 45.8 nM | 433 nM
